Assay results reported in patent publication US20260242398A1, “BENZOPYRIMIDIN-4(3H)-ONES AS PI3K INHIBITORS” (OnKure, Inc., priority 2022, published 2026).
Like-named read-outs stand apart in the source and are kept apart here.

What was measured:
Assay type in all cases: cell-based
[1] = system: phosphorylation of AKT (pAKT) in T47D cells expressing mutant PI3Ka (H1047R); assay: In vitro cell pAKT (Ser473) HTRF, T47D cells; details: inhibition of pAKT, read-out: Avg T-47D IC50
Protocol: (§1) In Vitro Cell pAKT: Determination of IC50 Values for Inhibition of Phosphorylation of AKT (pAKT) in T47D Cells Expressing Mutant PI3Ka (H1047R) Mutation and SKBR3 Cells Express WT PI3Ka.
(§2) T47D or SKBR3 cells were trypsinized, resuspended in culture media and seeded onto assay ready plates. T47D culture media consisted of RPMI, 10% FBS and Insulin (0.2 units/mL). SKBR3 culture media consisted of McCoy's 5a and 10% FBS. Cells were seeded at a density of 5000 cells/well and dispensed in 12.5 uL onto 384 well assay ready plates (Perkin Elmer, 6008238)). Assay ready plates had previously been stamped with 10-point dilutions of compounds of interest, as well as controls. The Echo655 is used to stamp plates at 12.5 nL of compound or DMSO. Cells were grown for 6 hour at 37° Celsius and 5% CO2. After 6 hour, 4 uL of Lysis buffer reagent was added to the plate, which was then centrifuged for 1 minute at 1000 rpm. Then the plate was incubated at room temperature for 30 minutes. After 30 minutes, 4 uL of antibody mix containing Eu Cryptate, d2 Cryptate, and detection buffer, was added to the plate. The plate was centrifuged for 1 minute at 1000 rpm and then incubated overnight at room temperature. The plate was read on an Envision plate reader using the HTRF protocol. The percentage of inhibition of AKT phosphorylation was calculated using the following formula: % Inhibition=100×(pAKTHC−pAKTSample)/(pAKTHC−pAKTLC)), where pAKTHC is obtained from cells treated with 0.1% DMSO only; pAKTLC is obtained from cells treated with 10 uM Alpelisib. The IC50 (concentration achieving 50% inhibition of pAKT) is calculated by fitting the Curve using XWfit (v5.3.1.3), equation 201: Y=Bottom+(Top−Bottom)/(1+10^((Log IC50−X)*HillSlope)).

[2] = system: T47D cells expressing mutant PI3Ka (H1047R); assay: In vitro cell proliferation (CellTiter-Glo, 72 hours), T47D cells; details: inhibition of proliferation, read-out: Avg T-47D EC50
Protocol: (§3) In Vitro Cell Proliferation: Determination of EC50 Values for Inhibition of Proliferation in T47D Cells Expressing Mutant PI3Ka (H1047R) Mutation and SKBR3 Cells Express WT PI3Ka.
(§4) T47D or SKBR3 cells were trypsinized, resuspended in culture media and seeded onto assay ready plates. T47D culture media consisted of RPMI, 10% FBS and Insulin (0.2 units/mL). SKBR3 culture media consisted of McCoys 5a and 10% FBS. Cells were seeded at a density of 1,500 cells/well and dispensed in 50 uL onto 384 well assay ready plates (Corning, 89089-790). Assay ready plates had previously been stamped with 10-point dilutions of compounds of interest, as well as controls. The Echo655 is used to stamp plates at 40 nL of compound or DMSO. Cells were grown for 72 hours at 37° Celsius and 5% CO2. After 72 hours, cells were equilibrated at room temperature for 15 minutes. 30 uL of CellTiter-Glo reagent is added to the plate, which is then shaken for 30 minutes at temperature at 300-500 rpm. Cells are then read on an Envision plate reader. The percentage of inhibition of proliferation was calculated using the following formula: % Inhibition=100×(LumD−LumSample)/(LumD−LumInh), where D is obtained from cells treated with 0.1% DMSO only; Inh is obtained from cells treated with 10 uM Alpelisib. The effective concentration achieving 50% inhibition of proliferation (EC50) is calculated by fitting the Curve using XWfit (v5.3.1.3), equation 201: Y=Bottom+(Top−Bottom)/(1+10^((Log EC50−X)*HillSlope)).

[3] = system: phosphorylation of AKT (pAKT) in SKBR3 cells express WT PI3Ka; assay: In vitro cell pAKT (Ser473) HTRF, SKBR3 cells; details: inhibition of pAKT
Protocol: as §1, §2

[4] = system: SKBR3 cells express WT PI3Ka; assay: In vitro cell proliferation (CellTiter-Glo, 72 hours), SKBR3 cells; details: inhibition of proliferation
Protocol: as §3, §4

Compound	IC50 ([1]; 6 hour) [µM]	EC50 [2] [µM]	IC50 ([3]; Homo sapiens, SK-BR-3, 6 h) [µM]	EC50 ([4]; Homo sapiens, SK-BR-3, 72 h) [µM]	IC50 ([3]; 6 hour) [µM]	EC50 [4] [µM]	IC50 ([1]; Homo sapiens, T47D, 6 h) [µM]	EC50 ([2]; Homo sapiens, T47D, 72 h) [µM]
Cc1cc(C(C)Nc2ccccc2C(=O)O)c2nc(N3Cc4ccc(C#N)cc4C3)n(C)c(=O)c2c1 (single isomer, unassigned) [Example 17, 2-((1-(2-(5-cyanoisoindolin-2-yl)-3,6-dimethyl-4-oxo-3,4-dihydroquinazolin-8-yl)ethyl)amino)benzoic acid]	0.001 to 1	0.001 to 0.5	> 15	> 15	–	–	–	–
Cc1cc(C(C)Nc2ccccc2C(=O)O)c2nc(N3Cc4ccc(C#N)cc4C3)n(C)c(=O)c2c1 (single isomer, unassigned) [Example 18, 2-((1-(2-(5-cyanoisoindolin-2-yl)-3,6-dimethyl-4-oxo-3,4-dihydroquinazolin-8-yl)ethyl)amino)benzoic acid]	> 15	> 15	–	–	> 15	> 15	–	–
Cc1cc2c(=O)n(C)c(N3CCN(CC(F)(F)F)CC3)nc2c(C(C)Nc2ccccc2C(=O)O)c1F (single isomer, unassigned) [Example 20, 2-((1-(7-fluoro-3,6-dimethyl-4-oxo-2-(4-(2,2,2-trifluoroethyl)piperazin-1-yl)-3,4-dihydroquinazolin-8-yl)ethyl)amino)benzoic acid]	0.001 to 1	0.5 to 2	> 15	> 15	–	–	–	–
Cc1cc2c(=O)n(C)c(N3CCN(CC(F)(F)F)CC3)nc2c(C(C)Nc2ccccc2C(=O)O)c1F (single isomer, unassigned) [Example 21, 2-((1-(7-fluoro-3,6-dimethyl-4-oxo-2-(4-(2,2,2-trifluoroethyl)piperazin-1-yl)-3,4-dihydroquinazolin-8-yl)ethyl)amino)benzoic acid]	> 15	> 15	–	–	> 15	> 15	–	–
CC(Nc1ccccc1C(=O)O)c1cc(Cl)cc2c(=O)n(C)c(N3CCC(C)(C)CC3)nc12 (single isomer, unassigned) [Example 22, 2-((1-(6-chloro-2-(4,4-dimethylpiperidin-1-yl)-3-methyl-4-oxo-3,4-dihydroquinazolin-8-yl)ethyl)amino)benzoic acid]	0.001 to 1	0.5 to 2	> 15	–	–	> 15	–	–
CC(Nc1ccccc1C(=O)O)c1cc(Cl)cc2c(=O)n(C)c(N3CCC(C)(C)CC3)nc12 (single isomer, unassigned) [Example 23, 2-((1-(6-chloro-2-(4,4-dimethylpiperidin-1-yl)-3-methyl-4-oxo-3,4-dihydroquinazolin-8-yl)ethyl)amino)benzoic acid]	> 15	2 to 15	–	–	> 15	2 to 15	–	–
CC(Nc1ccc(F)cc1C(=O)O)c1cc(Cl)cc2c(=O)n(C)c(N3CCN(CC(F)(F)F)CC3)nc12 (single isomer, unassigned) [Example 24, 2-((1-(6-chloro-3-methyl-4-oxo-2-(4-(2,2,2-trifluoroethyl)piperazin-1-yl)-3,4-dihydroquinazolin-8-yl)ethyl)amino)-5-fluorobenzoic acid]	0.001 to 1	0.001 to 0.5	> 15	2 to 15	–	–	–	–
CC(Nc1ccc(F)cc1C(=O)O)c1cc(Cl)cc2c(=O)n(C)c(N3CCN(CC(F)(F)F)CC3)nc12 (single isomer, unassigned) [Example 25, 2-((1-(6-chloro-3-methyl-4-oxo-2-(4-(2,2,2-trifluoroethyl)piperazin-1-yl)-3,4-dihydroquinazolin-8-yl)ethyl)amino)-5-fluorobenzoic acid]	> 15	2 to 15	–	–	> 15	2 to 15	–	–
CC(Nc1ccccc1C(=O)O)c1cc(Cl)cc2c(=O)n(C)c(N3CCN(CC(F)(F)F)CC3)nc12 (single isomer, unassigned) [Example 26, 2-((1-(6-chloro-3-methyl-4-oxo-2-(4-(2,2,2-trifluoroethyl)piperazin-1-yl)-3,4-dihydroquinazolin-8-yl)ethyl)amino)benzoic acid]	0.001 to 1	0.5 to 2	> 15	> 15	–	–	–	–
CC(Nc1ccccc1C(=O)O)c1cc(Cl)cc2c(=O)n(C)c(N3CCN(CC(F)(F)F)CC3)nc12 (single isomer, unassigned) [Example 27, 2-((1-(6-chloro-3-methyl-4-oxo-2-(4-(2,2,2-trifluoroethyl)piperazin-1-yl)-3,4-dihydroquinazolin-8-yl)ethyl)amino)benzoic acid]	> 15	> 15	–	–	> 15	> 15	–	–
Cc1cc(C(C)Nc2ccc(F)cc2C(=O)O)c2nc(N3CCC(C)(C)CC3)n(C)c(=O)c2c1 (single isomer, unassigned) [Example 30, 2-((1-(2-(4,4-dimethylpiperidin-1-yl)-3,6-dimethyl-4-oxo-3,4-dihydroquinazolin-8-yl)ethyl)amino)-5-fluorobenzoic acid]	> 15	2 to 15	–	–	> 15	2 to 15	–	–
Cc1cc(C(C)Nc2ccccc2C(=O)O)c2nc(SCc3ccc(Cl)c(OC(F)(F)F)c3)n(C)c(=O)c2c1 (single isomer, unassigned) [Example 31, 2-((1-(2-((4-chloro-3-(trifluoromethoxy)benzyl)thio)-3,6-dimethyl-4-oxo-3,4-dihydroquinazolin-8-yl)ethyl)amino)benzoic acid]	–	–	> 15	2 to 15	–	–	> 15	2 to 15
Cc1cc(C(C)Nc2ccccc2C(=O)O)c2nc(SCc3ccc(Cl)c(OC(F)(F)F)c3)n(C)c(=O)c2c1 (single isomer, unassigned) [Example 32, 2-((1-(2-((4-chloro-3-(trifluoromethoxy)benzyl)thio)-3,6-dimethyl-4-oxo-3,4-dihydroquinazolin-8-yl)ethyl)amino)benzoic acid]	> 15	2 to 15	–	–	> 15	2 to 15	–	–
CC(Nc1ccc(F)cc1C(=O)O)c1cc(F)cc2c(=O)n(C)c(N3CCN(CC(F)(F)F)CC3)nc12 (single isomer, unassigned) [Example 33, 5-fluoro-2-((1-(6-fluoro-3-methyl-4-oxo-2-(4-(2,2,2-trifluoroethyl)piperazin-1-yl)-3,4-dihydroquinazolin-8-yl)ethyl)amino)benzoic acid]	0.001 to 1	0.001 to 0.5	–	> 15	> 15	–	–	–
CC(Nc1ccc(F)cc1C(=O)O)c1cc(F)cc2c(=O)n(C)c(N3CCN(CC(F)(F)F)CC3)nc12 (single isomer, unassigned) [Example 34, 5-fluoro-2-((1-(6-fluoro-3-methyl-4-oxo-2-(4-(2,2,2-trifluoroethyl)piperazin-1-yl)-3,4-dihydroquinazolin-8-yl)ethyl)amino)benzoic acid]	> 15	> 15	–	–	5 to 15	> 15	–	–
CC(Nc1ccccc1C(=O)O)c1cc(F)cc2c(=O)n(C)c(N3CCN(CC(F)(F)F)CC3)nc12 (single isomer, unassigned) [Example 36, 2-((1-(6-fluoro-3-methyl-4-oxo-2-(4-(2,2,2-trifluoroethyl)piperazin-1-yl)-3,4-dihydroquinazolin-8-yl)ethyl)amino)benzoic acid]	> 15	> 15	–	–	> 15	> 15	–	–
